From patent US4826875A, “Pharmaceutical compositions containing levodopa methyl ester, preparation and therapeutic applications thereof” (priority 1986, dated 1989)
Where two headings read alike, the source gives them in different places. Blank lines part the entries; values can stand above or below the compound they belong to.

How the values were obtained:
clinical = experiment: clinical; parameters: species or system patients; details: human, in vivo, po
Description: The pharmaceutical composition as per Example 1 above has been orally administered to parkinsonian patients manifesting the on-off phenomenon, in order to evaluate the bioavailability and the clinical effect of LDME in this formulation in comparison with levodopa.
(§1) As previously illustrated, patients manifesting the on-off phenomenon alternate between periods when parkinsonian signs are relatively severe and intervals when parkinsonism is largely, if not completely, replaced by unvoluntary movements.
The absorption of LDME was infact very rapid, reaching the maximum concentration peak at 40-45 minutes from the administration.
Levodopa plasmatic levels after single oral administration
of corresponding doses of active principle (mg 200) re-
spectively of LDME and levodopa in two patients.

[1] = other experimental patterns; cited from earlier work
[2] = tested on: parkinsonian patients manifesting the on-off phenomenon; experiment: Clinical effect of oral LDME (Example 1 composition) vs levodopa in parkinsonian patients manifesting the on-off phenomenon; format: in vivo
Description: as §1

[3] = Absorption by rectal route
Solubility = format: physicochemical; details: aqueous compositions
reserpine-treated cats = details: cited from earlier work
[4] = in vivo
Parkinson's disease = details: cited from earlier work
[5] = cited from earlier work

absorption (clinical): very rapid | time of maximum concentration peak from the administration (clinical): 40 to 45 min | Levodopa plasmatic levels (clinical; 0 min): 0 µg/mL | Levodopa plasmatic levels (clinical; 330 min): 0.20 µg/mL | dyskinesias at the moment of the appearance of the mobility ("on" phase) ([2]; composition of Example 1, subjects presenting "long-term syndrome", preliminary trials): does not seem to induce dyskinesias | solubility (Solubility): high solubility
SMILES: COC(=O)[C@@H](N)Cc1ccc(O)c(O)c1 [LDME, levodopa methyl ester]
activity compared with the starting compound (levodopa) [1]: as active as the starting compound | duration of action ("on" period duration) in respect to levodopa ([2]; composition of Example 1): superior | onset of the therapeutic effect ([2]; composition of Example 1): 20 to 30 min | rectal absorption / plasma levels by rectal administration [3]: detectable plasma levels sufficient to assure a therapeutic effect | effects compared with levodopa (brain catecholamine levels, conditioned avoidance response) (reserpine-treated cats): causes the same effects as levodopa

Levodopa plasmatic levels (clinical; 0 min): 0 µg/mL | Levodopa plasmatic levels (clinical; 0.25 h): 0.35 µg/mL | Levodopa plasmatic levels (clinical; 0.5 h): 0.66 µg/mL | Levodopa plasmatic levels (clinical; 0.75 h): 0.88 µg/mL | Levodopa plasmatic levels (clinical; 1 h): 1.15 µg/mL | Levodopa plasmatic levels (clinical; 80 min): 1.67 µg/mL | Levodopa plasmatic levels (clinical; 100 min): 1.39 µg/mL | Levodopa plasmatic levels (clinical; 2 h): 1.35 µg/mL | Levodopa plasmatic levels (clinical; 140 min): 1.05 µg/mL | Levodopa plasmatic levels (clinical; 160 min): 0.82 µg/mL | Levodopa plasmatic levels (clinical; 3 h): 0.80 µg/mL | Levodopa plasmatic levels (clinical; 3.5 h): 0.58 µg/mL | Levodopa plasmatic levels (clinical; 4 h): 0.45 µg/mL | Levodopa plasmatic levels (clinical; 4.5 h): 0.38 µg/mL | Levodopa plasmatic levels (clinical; 5 h): 0.17 µg/mL | concentration at 0.25 h (clinical; Levodopa plasmatic levels): 310 ng/mL | concentration at 0.5 h (clinical; Levodopa plasmatic levels): 1050 ng/mL | concentration at 0.75 h (clinical; Levodopa plasmatic levels): 1410 ng/mL | concentration at 1 h (clinical; Levodopa plasmatic levels): 1130 ng/mL | concentration at 80 min (clinical; Levodopa plasmatic levels): 1470 ng/mL | concentration at 100 min (clinical; Levodopa plasmatic levels): 1170 ng/mL | concentration at 2 h (clinical; Levodopa plasmatic levels): 930 ng/mL | concentration at 140 min (clinical; Levodopa plasmatic levels): 1030 ng/mL | concentration at 160 min (clinical; Levodopa plasmatic levels): 820 ng/mL | concentration at 3 h (clinical; Levodopa plasmatic levels): 650 ng/mL | concentration at 3.5 h (clinical; Levodopa plasmatic levels): 700 ng/mL | concentration at 4 h (clinical; Levodopa plasmatic levels): 490 ng/mL | concentration at 4.5 h (clinical; Levodopa plasmatic levels): 350 ng/mL | concentration at 5 h (clinical; Levodopa plasmatic levels): 280 ng/mL | concentration at 5.5 h (clinical; Levodopa plasmatic levels): 420 ng/mL | rectal absorption / plasma levels by rectal administration [4]: not absorbed by rectal mucosa
SMILES: N[C@@H](Cc1ccc(O)c(O)c1)C(=O)O [levodopa, (-)-3-(3,4-dihydroxyphenyl)-L-alanine]
duration of efficacy ("end-of-dose deterioration") (Parkinson's disease; chronic treatment per os): 3 to 4 h | unwanted effects (Parkinson's disease; chronic treatment per os): abnormal unvoluntary movements | clinical response (Parkinson's disease; constant intravenous infusion): a stable clinical response can be maintained for hours | solubility [5]: slightly soluble

SMILES: CC(C)C[C@H]1C(=O)N2CCC[C@H]2[C@]2(O)O[C@](NC(=O)[C@@H]3C=C4c5cccc6[nH]c(Br)c(c56)C[C@H]4N(C)C3)(C(C)C)C(=O)N12 [bromocriptine]
prevention or reduction of response fluctuations (Parkinson's disease; alternative therapies with dopaminergic drugs): do not give actual advantages in prevention or reduction of response fluctuations
